Measurements as given in US20240043395A1, “COMPOUNDS AND COMPOSITIONS AS MODULATORS OF TLR SIGNALING” (Neuropore Therapies, Inc., priority 2020, published 2024).

Assays:
Assay type in all cases: cell-based
human TLR2 [1] = target: T1, human TLR2 (Homo sapiens (Human), UniProt O60603); assay: HEK-Blue hTLR2 antagonism assay (SEAP reporter), agonist Pam2CSK4; details: HEK-Blue hTLR2 cells; Pam2CSK4 (TLR2/6 agonist) at approx. 3×EC50; 18 h; 8-point dilutions
Protocol: (§1) Synthetic diacylated lipoprotein (Pam2CSK4, TLR2/6 agonist) and synthetic triacylated lipoprotein (Pam3CSK4, TLR1/2 agonist) were obtained from InvivoGen and were dissolved in endotoxin-free water to a concentration 1 mg/mL, vortexed until complete solubilization, and stored in aliquots at −20° C. Prior to addition to cells, an aliquot of the dissolved ligand was vortexed shortly and then was diluted in medium to 25 ng/mL Pam2CSK4 or 1000 ng/mL Pam3CSK4.
(§2) Test compounds were solubilized fresh to 10-20 mM stocks in DMSO and sonicated for 5-10 minutes in a water bath sonicator. Serial dilutions were prepared in DMSO, and then diluted in medium. The final concentration of DMSO used in the assay was 1%.
(§3) HEK-Blue hTLR2 reporter cells (InvivoGen) are HEK-293 cells stably expressing both the human TLR2 gene and a secreted embryonic alkaline phosphatase (SEAP) reporter construct downstream of NFκB promotor sites. HEK-Blue hTLR2 reporters were cultured according to manufacturer's protocol using Dulbecco's Modified Eagle Medium (DMEM; Gibco) containing 1× GlutaMax (Gibco), 10% heat-inactivated Fetal Bovine Serum (Gibco), Pen-Strep (50 U/mL penicillin, 50 μg/mL streptomycin, Gibco), 100 μg/mL Normocin (InvivoGen), and the selective antibiotic, lx HEK-Blue Selection (InvivoGen). Quanti-Blue reagent (InvivoGen) for detection and quantification of secreted alkaline phosphatase was dissolved in 100 mL of endotoxin-free water, warmed to 37° C. for 30 minutes and then filtered using a 0.2 μm membrane.
(§4) On day 1, 50 μL of each test compound dilution in duplicates or a vehicle control was added to each well of a 96-well plate followed by addition of 150 μL of HEK-Blue hTLR2 cell suspension (1×10^5 cells/well) and incubated at 37° C./5% CO2 for 2 h. Next, 50 μL of an approximate 3×EC50 concentration of each agonist (Pam2CSK4 or Pam3CSK4) was added to the wells containing test compounds or the vehicle control. The plates were then incubated at 37° C./5% CO2 for 18 h. For each assay run, non-treated HEK-Blue hTLR2 cells were treated with serial dilutions of agonists to determine EC50 values for the respective run.
(§5) On day 2, secreted alkaline phosphatase (SEAP) activity was detected in cell culture supernatants. In brief, 20 μL was collected from each well and transferred to a 96-well plate. Next, 200 μL of Quanti-Blue detection reagent was added to each well. Plates were incubated at room temperature for 15 min and SEAP activity was assessed by spectrophotometer OD reading at 655 nm. […] IC50 values were calculated based on 8-point dilutions for each compound.

human TLR2 [2] = target: T1, human TLR2; assay: HEK-Blue hTLR2 antagonism assay (SEAP reporter), agonist Pam3CSK4; details: HEK-Blue hTLR2 cells; Pam3CSK4 (TLR1/2 agonist) at approx. 3×EC50; 18 h; 8-point dilutions
Protocol: as §1, §2, §3, §4, §5

human TLR9 = human TLR9 (Homo sapiens (Human), UniProt Q9NR96); assay: HEK-Blue hTLR9 antagonism assay (SEAP reporter), agonist ODN 2006; details: HEK-Blue hTLR9 cells; ODN 2006 (TLR9 agonist) at approx. 3×EC50; 18 h; exact values 8-point, approximate (~ or <) 4-point dilutions; read-out: IC50 (μM) with ODN2006
human TLR9, sequence (Q9NR96 26-1032): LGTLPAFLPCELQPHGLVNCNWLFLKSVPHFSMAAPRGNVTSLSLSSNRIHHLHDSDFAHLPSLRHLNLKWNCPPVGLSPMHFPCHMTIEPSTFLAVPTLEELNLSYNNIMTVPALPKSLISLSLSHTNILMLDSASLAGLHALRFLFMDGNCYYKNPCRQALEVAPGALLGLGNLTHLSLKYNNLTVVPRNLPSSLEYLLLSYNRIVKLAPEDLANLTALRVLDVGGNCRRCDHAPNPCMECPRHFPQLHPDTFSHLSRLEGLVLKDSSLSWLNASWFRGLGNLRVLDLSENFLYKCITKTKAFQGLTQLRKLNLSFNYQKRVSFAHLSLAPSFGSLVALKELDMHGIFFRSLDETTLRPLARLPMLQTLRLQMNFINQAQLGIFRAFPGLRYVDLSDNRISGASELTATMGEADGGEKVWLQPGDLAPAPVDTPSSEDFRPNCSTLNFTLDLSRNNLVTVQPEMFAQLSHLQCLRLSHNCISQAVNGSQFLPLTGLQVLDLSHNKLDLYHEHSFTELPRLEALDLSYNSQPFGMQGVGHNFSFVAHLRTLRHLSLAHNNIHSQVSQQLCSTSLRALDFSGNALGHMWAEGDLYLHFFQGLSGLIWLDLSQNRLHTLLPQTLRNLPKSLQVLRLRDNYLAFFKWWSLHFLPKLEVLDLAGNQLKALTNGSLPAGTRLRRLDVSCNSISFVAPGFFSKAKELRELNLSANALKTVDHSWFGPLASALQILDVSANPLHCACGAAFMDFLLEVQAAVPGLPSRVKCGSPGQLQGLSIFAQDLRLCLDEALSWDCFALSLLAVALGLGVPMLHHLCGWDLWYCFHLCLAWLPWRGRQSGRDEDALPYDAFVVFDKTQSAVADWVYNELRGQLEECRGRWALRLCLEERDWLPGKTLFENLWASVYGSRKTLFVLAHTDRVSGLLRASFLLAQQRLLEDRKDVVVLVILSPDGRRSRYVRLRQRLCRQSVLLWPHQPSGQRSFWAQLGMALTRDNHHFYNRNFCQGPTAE
Protocol: Synthetic ODNs (ODN 2006 (ODN 7909), class B CpG oligonucleotide, TLR9 agonist) was obtained from InvivoGen and was dissolved in endotoxin-free water to a concentration 500 μM, vortexed until complete solubilization, and stored in aliquots at −20° C. Prior to addition to cells, an aliquot of the dissolved ligand was vortexed shortly and then was diluted in medium to 50 μM.
as §2
as §3, with “hTLR9” for “hTLR2”, “TLR9” for “TLR2”, “hTLR9 cells” for “hTLR2 reporters”, “antibiotics, 10 μg/mL Blasticidin (InvivoGen), and 100 μg/mL Zeocin” for “antibiotic, lx HEK-Blue Selection”
as §4, with “hTLR9” for “hTLR2”, “TLR9 agonist, ODN 2006,” for “each agonist (Pam2CSK4 or Pam3CSK4)”, “vehicle-treated” for “non-treated”, “agonist” for “agonists”
On day 2, secreted alkaline phosphatase (SEAP) activity was detected in cell culture supernatants. In brief, 30 μL was collected from each well and transferred to a 96-well plate. Next, 200 μL of Quanti-Blue detection reagent was added to each well. Plates were incubated at 37° C. for 60 min. and SEAP activity was assessed by spectrophotometer OD reading at 655 nm. […] Exact IC50 values were calculated based on 8-point dilutions for each compound. Approximate IC50 values (˜ or <) were calculated based on 4-point dilutions for each compound.

T1 sequence (O60603 21-784): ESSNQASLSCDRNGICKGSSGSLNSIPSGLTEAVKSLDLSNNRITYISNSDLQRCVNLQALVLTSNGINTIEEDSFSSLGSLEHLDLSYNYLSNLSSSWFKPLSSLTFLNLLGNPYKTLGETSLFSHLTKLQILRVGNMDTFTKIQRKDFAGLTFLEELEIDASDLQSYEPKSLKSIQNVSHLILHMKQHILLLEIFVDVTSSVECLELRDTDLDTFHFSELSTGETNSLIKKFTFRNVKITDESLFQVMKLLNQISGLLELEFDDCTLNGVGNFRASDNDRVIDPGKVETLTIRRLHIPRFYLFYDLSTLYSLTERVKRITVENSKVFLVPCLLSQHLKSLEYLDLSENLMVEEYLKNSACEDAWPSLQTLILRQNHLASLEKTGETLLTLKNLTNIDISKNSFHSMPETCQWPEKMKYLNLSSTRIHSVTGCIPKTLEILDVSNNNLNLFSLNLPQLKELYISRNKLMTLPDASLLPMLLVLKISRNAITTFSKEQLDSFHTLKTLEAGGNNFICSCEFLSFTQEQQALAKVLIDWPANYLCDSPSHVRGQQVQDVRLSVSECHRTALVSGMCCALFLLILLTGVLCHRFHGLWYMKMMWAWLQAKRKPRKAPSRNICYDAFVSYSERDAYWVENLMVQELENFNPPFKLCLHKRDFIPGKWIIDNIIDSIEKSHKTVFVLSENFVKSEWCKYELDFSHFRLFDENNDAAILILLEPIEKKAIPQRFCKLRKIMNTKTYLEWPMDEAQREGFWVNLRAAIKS

Compound	IC50 (human TLR2 [1]) [µM]	IC50 (human TLR2 [2]) [µM]	IC50 (human TLR9) [µM]
O=Cc1cc(C(=O)Nc2nnc(-c3ccccc3)s2)cc(F)c1O [Compound 2, 3-fluoro-5-formyl-4-hydroxy-N-(5-phenyl-1,3,4-thiadiazol-2-yl)benzamide]	6.7	2.2	~0.5
O=Cc1cc(C(=O)Nc2ncc(-c3ccccc3)s2)cc(F)c1O [Compound 4, 3-fluoro-5-formyl-4-hydroxy-N-(5-phenylthiazol-2-yl)benzamide]	0.9	0.5	0.2
O=Cc1cc(C(=O)Nc2cnc(N3CCCCC3)s2)cc(F)c1O [Compound 7, 3-fluoro-5-formyl-4-hydroxy-N-(2-(piperidin-1-yl)thiazol-5-yl)benzamide]	> 100	> 100	> 33
O=Cc1cc(NC(=O)c2ncc(-c3ccccc3)s2)cc(F)c1O [Compound 10, N-(3-fluoro-5-formyl-4-hydroxyphenyl)-5-phenylthiazole-2-carboxamide]	1.6	0.9	~1
O=Cc1cc(C(=O)NCCCc2ccc(N3CCCC3)cc2)cc(F)c1O [Compound 144, 3-fluoro-5-formyl-4-hydroxy-N-(3-(4-(pyrrolidin-1-yl)phenyl)propyl)benzamide]	9.3	5.3	–
CN(C(=O)c1cc(F)c(O)c(C=O)c1)C12CC(c3ccccc3)(C1)C2 [Compound 158, 3-fluoro-5-formyl-4-hydroxy-N-methyl-N-(3-phenylbicyclo[1.1.1]pentan-1-yl)benzamide]	5.9	2.25	–
O=Cc1cc(COC(=O)Nc2cccc(N3CCCC3)c2)cc(F)c1O [Compound 159, 3-fluoro-5-formyl-4-hydroxybenzyl (3-(pyrrolidin-1-yl)phenyl)carbamate]	9.29	4.39	–
O=Cc1cc(C(=O)NNc2cccc(Br)c2)cc(F)c1O [Compound 160, N′-(3-bromophenyl)-3-fluoro-5-formyl-4-hydroxybenzohydrazide]	38.4	26.5	–
O=Cc1cc(-c2nc(-c3ccc(N4CCCC4)cc3)ns2)cc(F)c1OC(=O)OC1CCOC1 (stereo not shown) [Compound 162, 2-fluoro-6-formyl-4-(3-(4-(pyrrolidin-1-yl)phenyl)-1,2,4-thiadiazol-5-yl)phenyl tetrahydrofuran-3-yl carbonate]	11.5	4.3	–
O=Cc1cc(C(=O)Nc2cnc(-c3ccnc(N4CCCC4)c3)s2)cc(F)c1O [Compound 168, 3-fluoro-5-formyl-4-hydroxy-N-(2-(2-(pyrrolidin-1-yl)pyridin-4-yl)thiazol-5-yl)benzamide]	15.8	9.6	–
O=Cc1cc(-c2nc(-c3ccc(N4CC(F)(F)C4)cc3)ns2)cc(F)c1O [Compound 169, 5-(3-(4-(3,3-difluoroazetidin-1-yl)phenyl)-1,2,4-thiadiazol-5-yl)-3-fluoro-2-hydroxybenzaldehyde]	2.5	1.3	–
NS(=O)(=O)c1ccc(-c2nsc(-c3cc(F)c(O)c(C=O)c3)n2)cc1 [Compound 170, 4-(5-(3-fluoro-5-formyl-4-hydroxyphenyl)-1,2,4-thiadiazol-3-yl)benzenesulfonamide]	17.7	5.36	–
O/N=C\c1cc(-c2nc(-c3ccc(N4CCCC4)cc3)ns2)cc(F)c1O [Compound 171, 3-fluoro-2-hydroxy-5-(3-(4-(pyrrolidin-1-yl)phenyl)-1,2,4-thiadiazol-5-yl)benzaldehyde oxime]	2.52	1.03	–
O=Cc1cc(-c2nc(-c3ccc(N4CCCC4)cc3)ns2)cc(F)c1OC(=O)N1CCCC1 [Compound 172, 2-fluoro-6-formyl-4-(3-(4-(pyrrolidin-1-yl)phenyl)-1,2,4-thiadiazol-5-yl)phenyl pyrrolidine-1-carboxylate]	1	0.5	–
CN(C)C(=O)Oc1c(F)cc(-c2nc(-c3ccc(N4CCCC4)cc3)ns2)cc1C=O [Compound 173, 2-fluoro-6-formyl-4-(3-(4-(pyrrolidin-1-yl)phenyl)-1,2,4-thiadiazol-5-yl)phenyl dimethylcarbamate]	0.9	0.5	–
O=Cc1cc(-c2nc(-c3ccc(N4CCCC4)cc3)ns2)cc(F)c1OC(=O)N1CCOCC1 [Compound 174, 2-fluoro-6-formyl-4-(3-(4-(pyrrolidin-1-yl)phenyl)-1,2,4-thiadiazol-5-yl)phenyl morpholine-4-carboxylate]	1.5	0.6	–
CN1CCN(C(=O)Oc2c(F)cc(-c3nc(-c4ccc(N5CCCC5)cc4)ns3)cc2C=O)CC1 [Compound 175, 2-fluoro-6-formyl-4-(3-(4-(pyrrolidin-1-yl)phenyl)-1,2,4-thiadiazol-5-yl)phenyl 4-methylpiperazine-1-carboxylate]	1.2	0.3	–
COCCOCC(=O)Oc1c(F)cc(-c2nc(-c3ccc(N4CCCC4)cc3)ns2)cc1C=O [Compound 176, 2-fluoro-6-formyl-4-(3-(4-(pyrrolidin-1-yl)phenyl)-1,2,4-thiadiazol-5-yl)phenyl 2-(2-methoxyethoxy)acetate]	2	0.6	–
C[n+]1ccccc1Oc1c(F)cc(-c2nc(-c3ccc(N4CCCC4)cc3)ns2)cc1C=O [Compound 177, 2-(2-fluoro-6-formyl-4-(3-(4-(pyrrolidin-1-yl)phenyl)-1,2,4-thiadiazol-5-yl)phenoxy)-1-methylpyridinium iodide]	1.6	0.6	–
CN1C(=O)Oc2c(F)cc(-c3nc(-c4ccc(N5CCCC5)cc4)ns3)cc2C1O (stereo not shown) [Compound 178, 8-fluoro-4-hydroxy-3-methyl-6-(3-(4-(pyrrolidin-1-yl)phenyl)-1,2,4-thiadiazol-5-yl)-3,4-dihydro-2H-benzo[e][1,3]oxazin-2-one]	1.2	0.43	–
COCCN1C(=O)Oc2c(F)cc(-c3nc(-c4ccc(N5CCCC5)cc4)ns3)cc2C1O (stereo not shown) [Compound 179, 8-fluoro-4-hydroxy-3-(2-methoxyethyl)-6-(3-(4-(pyrrolidin-1-yl)phenyl)-1,2,4-thiadiazol-5-yl)-3,4-dihydro-2H-benzo[e][1,3]oxazin-2-one]	0.8	0.2	–
